System: highly tumorigenic variant of the M-3 cells
Format: in vivo, mice

For “LFEAIEGFI [Leu Phe Glu Ala Ile Glu Gly Phe Ile, viral peptide derived from the influenza virus haemagglutinin, H2-K^d-ligand, used as foreign peptide to charge tumour cells]”, the animals cured (cells charged with peptide using TfpL/DNA complexes) was 6 out of 8 and the animals developed tumours (peptide simply mixed with the cells (adjuvant)) was 7 out of 8.
